This note sets out measurements from patent US12460243B2, “Mass spectrometry determination of the sensitivity or resistance of bacteria to an antibiotic” (priority 2019, dated 2025).

Bridge positions count the residues as written; N and C are the ends. Square brackets hold non-standard residues; d marks the D form. Peptide text beside a SMILES is read from it. * marks the point of attachment. Heptanoyl(6-Me) = CC(C)CCCCC(=O)*; Dab = NCC[C@H](N)C(=O)O

What all share (assay type): cell-based
One assay concerns Pseudomonas aeruginosa. Description: microdilution in broth (reference method). The settings on record: by microdilution in broth. On the procedure:
(§1) So as to be able to evaluate the efficacy of the method according to the invention, the different strains were analyzed beforehand by microdilution in broth in order to determine their status (sensitive or resistant). This method is regarded as the reference method by the CLSI and EUCAST.
(§2) As before, the different strains were analyzed beforehand by microdilution in broth in order to determine their status (sensitive or resistant).

The subject of another assay is Acinetobacter baumannii. Description: microdilution in broth (reference method). Conditions: by microdilution in broth. As for the experimental part:
as §1, §2

Another assay relates to Escherichia coli. Description: MALDI-TOF detection of characteristic proteins released after incubation with colistin (examples II-IV, centrifugation). Conditions: colistin 2.5 mg/ml. On the procedure: This test was carried out using the following steps: • preparing a suspension of strains EC_S and EC_R of E. coli at 1 McFarland (McF) in water (suspension medium, bioMérieux reference 70700), • preparing a solution of colistin sulfate (Sigma, reference C4461) at a concentration of 5 mg/ml in pure water (taking into account the colistin titer indicated by the manufacturer), • mixing 250 μl of each suspension with 250 μl of colistin to obtain a solution of microorganism at 0.5 McF and at a concentration of 2.5 mg/ml of colistin, • homogenizing using a vortex for 5 seconds, • incubating the mixture for 4 hours at 37° C., • homogenizing using a vortex for 5 seconds, • centrifuging at 4700 rev/min (1500 g) for 5 minutes, • depositing 1 μl of the supernatant on a disposable target (bioMérieux reference 410893), • depositing 1 μl of HCCA matrix (bioMérieux, reference 411071) on the drop of supernatant, • analyzing the sample by MALDI-TOF spectrometry on VITEK-MS Plus (bioMérieux) with a method suitable for microbiology, i.e. with a positive ionization mode and a mass range from 2000 to 20 000 Th. • accumulating 100 profiles from 10 firings and comparing the data with the data contained in the databases for E. coli, • observing the presence or absence of protein peaks characteristic of E. coli. • determining the sensitivity to colistin if proteins characteristic of E. coli are detected or the resistance if no protein of E. coli is detected.
The E. coli strains S and R16 are analyzed with the same protocol as in example II apart from the incubation time of 30 minutes at 37° C. The S strain is sensitive to colistin and the R16 strain is resistant to colistin.
The same E. coli strains R16 and S are analyzed with the same protocol as in example III apart from incubation at 50° C.

Take `CC(C)CCCCC(=O)N[C@@H](CCN)C(=O)N[C@H](C(=O)N[C@@H](CCN)C(=O)N[C@H]1CCNC(=O)[C@H]([C@@H](C)O)NC(=O)[C@H](CCN)NC(=O)[C@H](CCN)NC(=O)[C@H](CC(C)C)NC(=O)[C@@H](CC(C)C)NC(=O)[C@H](CCN)NC1=O)[C@@H](C)O` [colistin] ({Heptanoyl(6-Me)}-[Dab]T[Dab][Dab][Dab][dL]L[Dab][Dab]T; lactam 4-C): the “Sensible ou Résistante” value was “Résistante” in the assay with Pseudomonas aeruginosa (strain PA_RE66); “Résistante” with Pseudomonas aeruginosa (strain PA_RE68); “Sensible” in the assay with Pseudomonas aeruginosa (strain PA_S062); “Sensible” in the assay with Pseudomonas aeruginosa (strain PA_SE64); “Résistante” in the assay with Acinetobacter baumannii (strain AB_R-E105); “Sensible” in the assay with Acinetobacter baumannii (strain AB_S044). Moreover, the “Sensible ou Résistante” value with Acinetobacter baumannii (strain AB_S045) and in the assay on Acinetobacter baumannii (strain AB_S046) was “Sensible” in each case. Besides, the “sensitivity or resistance to colistin by MALDI-TOF” value in the assay with Escherichia coli (strain EC_R, 4 h at 37° C.) was “resistant”; in the assay with Escherichia coli (strain EC_S, 4 h at 37° C.) it was “sensitive”; in the assay with Escherichia coli (strain R16, 30 min at 37° C.), “resistance”; in the assay on Escherichia coli (strain R16, 30 min at 50° C.) it was “resistance”; in the assay on Escherichia coli (strain S, 30 min at 37° C.), “sensitive”; in the assay on Escherichia coli (strain S, 30 min at 50° C.), “sensitivity”.
